What was measured:
[1] = system: recombinant human CFTR carrying the premature stop codon (PTC) mutation G542X; experiment: CFTR-PTC mutant translation readthrough, Nanoluc tagged CFTR luminescence (G542X cell line); assay type: cell-based; conditions: in combination with G418, G542X cell line; for CFTR G542X ACTIVITY Fold 10 μM G-418: fold over 10 μM G-418; for EC50: 16HBE cells
Method in brief: (§1)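 16HBE cells stably expressing Nanoluc-tagged human CFTR with G542X or R1162X, in medium with 3 μM VX-809, treated 48 h at 37 °C with compound (10-point, 2-fold, top 50 μM final) alone or with 10 μM G418. Live-cell Nanoluc luminescence normalised to a maximally effective G418 (125-250 μM).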

[2] = system: recombinant human CFTR carrying the premature stop codon (PTC) mutation R1162X; experiment: CFTR-PTC mutant translation readthrough, Nanoluc tagged CFTR luminescence (R1162X cell line); assay type: cell-based; conditions: for CFTR R1162X ACTIVITY Fold 10 μM G-418: fold over 10 μM G-418, in combination with G418; for EC50: in combination with G418, 16HBE cells, read-out: CFTR R1162X ACTIVITY EC50
Method in brief: as §1

Structure (SMILES) | EC50 [1] | EC50 [2] | CFTR G542X ACTIVITY Fold 10 μM G-418 [1] | CFTR R1162X ACTIVITY Fold 10 μM G-418 [2]
Cn1cnc(-c2ccc(OCc3c(Cl)cccc3Cl)cc2)c1 [4-[4-[(2,6-dichlorophenyl)methoxy]phenyl]-1-methyl-imidazole] | 1 to 10 µM | 1 to 10 µM | A′ (A′ = ≥10X) | A′ (A′ = ≥10X)
O=C1OCC(CO)=C1c1ccc(OCc2c(Cl)cccc2Cl)cc1 [4-[4-[(2,6-dichlorophenyl)methoxy]phenyl]-3-(hydroxymethyl)-2H-furan-5-one] | 1 to 10 µM | 1 to 10 µM | B′ (B′ = ≥5X to <10X) | B′ (B′ = ≥5X to <10X)
NC(=O)N1CCCN(c2ncc(OCc3c(Cl)cccc3Cl)cn2)CC1 [4-[5-[(2,6-dichlorophenyl)methoxy]pyrimidin-2-yl]-1,4-diazepane-1-carboxamide] | 1 to 10 µM | 1 to 10 µM | A′ (A′ = ≥10X) | A′ (A′ = ≥10X)
CN1CCN(c2ncc(OCc3c(Cl)cccc3Cl)cn2)CC1=O [4-[5-[(2,6-dichlorophenyl)methoxy]pyrimidin-2-yl]-1-methyl-piperazin-2-one] | 1 to 10 µM | 1 to 10 µM | A′ (A′ = ≥10X) | A′ (A′ = ≥10X)
Clc1cccc(Cl)c1COc1cnc(N2CCOCC2)nc1 [4-[5-[(2,6-dichlorophenyl)methoxy]pyrimidin-2-yl]morpholine] | 1 to 10 µM | 1 to 10 µM | A′ (A′ = ≥10X) | A′ (A′ = ≥10X)
NS(=O)(=O)N1CCN(c2ncc(OCc3c(Cl)cccc3Cl)cn2)CC1 [4-[5-[(2,6-dichlorophenyl)methoxy]pyrimidin-2-yl]piperazine-1-sulfonamide] | 1 to 10 µM | > 10 µM | A′ (A′ = ≥10X) | A′ (A′ = ≥10X)
O=C(O)C1CN(c2ncc(OCc3c(Cl)cccc3C(F)(F)F)cn2)CCO1 (stereo not drawn) [4-[5-[[2-chloro-6-(trifluoromethyl)phenyl]methoxy]pyrimidin-] | 1 to 10 µM | < 1 µM | C′ (C′ = <5X) | –
NCC1CN(c2ccc(OCc3c(Cl)cccc3Cl)cc2)C(=O)O1 (stereo not drawn) [5-(aminomethyl)-3-[4-[(2,6-dichlorophenyl)methoxy]phenyl]oxazolidin-2-one] | 1 to 10 µM | > 10 µM | B′ (B′ = ≥5X to <10X) | A′ (A′ = ≥10X)
Cn1cc(-c2ccc(OCc3c(Cl)cccc3Cl)cn2)nn1 [5-[(2,6-dichlorophenyl)methoxy]-2-(1-methyltriazol-4-yl)pyridine] | 1 to 10 µM | 1 to 10 µM | A′ (A′ = ≥10X) | A′ (A′ = ≥10X)

More lines, main results first:

EC50 [1] | EC50 [2] | Structure (SMILES) | CFTR G542X ACTIVITY Fold 10 μM G-418 [1] | CFTR R1162X ACTIVITY Fold 10 μM G-418 [2]
1 to 10 µM | 1 to 10 µM | O=C1OC(CO)CN1c1ccc(OCc2c(Cl)cccc2Cl)cn1 (stereo not drawn) [3-[5-[(2,6-dichlorophenyl)methoxy]-2-pyridyl]-5-(hydroxymethyl)oxazolidin-2-one] | A′ (A′ = ≥10X) | A′ (A′ = ≥10X)
1 to 10 µM | 1 to 10 µM | O=C1OC(CO)CN1c1ccc(OCc2cc(Cl)cc(Cl)c2)cn1 (stereo not drawn) [3-[5-[(3,5-dichlorophenyl)methoxy]-2-pyridyl]-5-(hydroxymethyl)oxazolidin-2-one] | A′ (A′ = ≥10X) | A′ (A′ = ≥10X)
1 to 10 µM | > 10 µM | CN(CCCO)c1ncc(OCc2c(Cl)cccc2Cl)cn1 [3-[[5-[(2,6-dichlorophenyl)methoxy]pyrimidin-2-yl]-methyl-amino]propan-1-ol] | B′ (B′ = ≥5X to <10X) | B′ (B′ = ≥5X to <10X)
1 to 10 µM | > 10 µM | O=C(O)C1CN(c2ncc(OCc3c(Cl)cccc3C(F)(F)F)cn2)CCO1 (stereo not drawn) [4-(5-{[2-chloro-6-(trifluoromethyl)phenyl]methoxy}pyrimidin-] | – | –
< 1 µM | < 1 µM | Cc1cccc(C(F)(F)F)c1COc1cnc(N2CCNC(=O)C2)nc1 [4-[5-[[2-methyl-6-(trifluoromethyl)phenyl]methoxy]pyrimidin-2-yl]piperazin-2-one] | A′ (A′ = ≥10X) | A′ (A′ = ≥10X)
< 1 µM | < 1 µM | CN(CCCCO)c1ncc(OCc2c(Cl)cccc2Cl)cn1 [4-[[5-[(2,6-dichlorophenyl)methoxy]pyrimidin-2-yl]-methyl-amino]butan-1-ol] | A′ (A′ = ≥10X) | A′ (A′ = ≥10X)

Source: patent US20250228865A1, “COMPOUNDS FOR ENHANCING READ THROUGH OF GENES CONTAINING PREMATURE TERMINATION CODONS AND METHODS FOR MAKING AND USING THE SAME” (Sanofi US Services Inc., priority 2022, published 2025)
